Source: US8664257B2, “Oxygen-substituted 3-heteroaroylamino-propionic acid derivatives and their use as pharmaceuticals” (Sanofi, priority 2010, dated 2014)
Where two headings read alike, the source gives them in different places.

Target: T1, Recombinant human cathepsin A (Homo sapiens, UniProt P10619)
T1 construct: Recombinant human cathepsin A (residues 29-480, with a C-terminal 10-His tag); 10-His (C); purchased R&D Systems 1049-SE
T1 sequence (P10619 29-312 limits assumed): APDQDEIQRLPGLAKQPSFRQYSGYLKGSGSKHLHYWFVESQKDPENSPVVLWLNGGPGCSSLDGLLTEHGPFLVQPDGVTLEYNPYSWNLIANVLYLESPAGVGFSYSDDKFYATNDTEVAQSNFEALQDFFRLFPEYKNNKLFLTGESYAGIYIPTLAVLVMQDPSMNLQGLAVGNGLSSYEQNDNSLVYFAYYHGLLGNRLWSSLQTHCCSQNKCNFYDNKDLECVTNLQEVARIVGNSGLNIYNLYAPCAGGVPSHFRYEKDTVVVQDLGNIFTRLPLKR
T1 sequence (P10619 327-480 limits assumed): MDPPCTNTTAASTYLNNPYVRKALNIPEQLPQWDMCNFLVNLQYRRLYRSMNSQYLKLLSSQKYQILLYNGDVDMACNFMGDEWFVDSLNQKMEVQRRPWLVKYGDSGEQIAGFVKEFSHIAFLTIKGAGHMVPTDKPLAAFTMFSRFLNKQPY
Assay: Cathepsin A inhibitory activity
Assay type: biochemical
Outline: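 Human cathepsin A (res. 29-480, C-His10) pre-activated with cathepsin L (MES pH 6.0, DTT, 15 min, 37 °C; quenched with 10 μM E-64). Enzyme (833 ng/ml) preincubated 15 min RT with compound in MES pH 5.5/DTT, then 2 μM Bodipy FL-bradykinin for 15 min RT. Capillary electrophoresis product/substrate peak areas; IC50 from % inhibition.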

[1] = read-out: Activity (2): Cathepsin A inhibitory activity, IC50 class

| IC50 [1] | SMILES | further results |
| --- | --- | --- |
| 100 to 1000 nM | O=C(O)CC(NC(=O)c1cc(O)n(-c2ccccc2)n1)c1ccc(-c2ccccc2)cc1 (stereo not drawn) [Example 69] |  |
| 100 to 1000 nM | COc1ccc([C@H](CC(=O)O)NC(=O)c2cc(O)n(-c3ccccc3)n2)cc1 [Example 374] |  |
|  | O=C(O)CC(NC(=O)c1cc(O)n(-c2ccc(F)cc2F)n1)c1ccc(Oc2ccccc2)cc1 (stereo not drawn) [Example 199] | IC50 (pharmacological test "Cathepsin A inhibitory activity", IC50 given as class A/B/C, read-out: Activity (2): Cathepsin A inhibitory activity, IC50 class): 100 to 1000 nM |
|  | Cc1ccc([C@H](CC(=O)O)NC(=O)c2cc(O)n(-c3cccc(Cl)c3)n2)cc1 [Example 512, (S)-3-{[1-(3-Chloro-phenyl)-5-hydroxy-1H-pyrazole-3-carbonyl]-amino}-3-p-tolyl-propionic acid] | IC50 (recombinant human cathepsin A 833 ng/ml, Bodipy FL-labeled bradykinin 2 μM, pH 5.5, read-out: CATH-A IC50): 155 nM; IC50 (recombinant human cathepsin A, read-out: Activity (2): Cathepsin A inhibitory activity, IC50 class): 100 to 1000 nM |

| SMILES | IC50 [1] | further results |
| --- | --- | --- |
| CC(C)C(C)(O)COc1cc(C(=O)N[C@@H](CC(=O)O)c2c(F)cccc2F)nn1-c1ccccc1F (stereo partly drawn) [Example 808, (S)-3-(2,6-Difluoro-phenyl)-3-{[1-(2-fluoro-phenyl)-5-(2-hydroxy-2,3-dimethyl-butoxy)-1H-pyrazole-3-carbonyl]-amino}-propionic acid] | < 100 nM |  |
